Tests used:
GSDM-D = GSDM-D immunofluorescence in corneal endothelial grafts exposed to TNF-α and IFN-γ; type: cell-based, human; conditions: Ac-YVAD-cmk, TNF-α 100 ng/ml + IFN-γ 100 ng/ml, 48 hours
Description: (§1) Endothelial grafts were isolated from corneal tissue grafts stored in Optisol GS (Bausch & Lomb; Rochester, New York, USA) and transferred to 24-well plates in DMEM/F12 medium (Gibco, Invitrogen Thermo Fisher, Carlsbad, CA, USA) supplemented with 5% fetal bovine serum (Gibco, Invitrogen Thermo Fisher, Carlsbad, CA, USA) and incubated at 37° C. for 48 hours to stabilize the cells following hypothermic storage. Medium was replaced and endothelial grafts were treated with TNF-α (100 ng/ml, R&D Systems, Minneapolis, MN, USA) and IFN-γ (100 ng/ml, Systems, Minneapolis, MN, USA)^34 and were incubated at 37° C. for 48 hours. Caspase-1 inhibitor, Ac-YVAD-cmk (30 ng/ml, InvivoGen, San Diego, CA, USA) was used to inhibit the inflammasome in CEC.
(§2) Endothelial grafts were fixed with 4% paraformaldehyde for 10 minutes at room temperature and washed with PBS. For immunofluorescence staining, samples were permeabilized with 0.3% Triton X-100 in PBS for 15 minutes and blocked with Image-iT FX signal enhancer (Invitrogen ThermoFisher Scientific; Carlsbad, CA, USA) for 30 minutes at room temperature. Isotype-matched nonspecific IgG antibodies were used as controls. […] Stained samples were examined using an inverted fluorescence microscope (BZ-X800 Analyzer, KEYENCE, Osaka, Japan). Images were analyzed using BZ-X-Analyzer software (KEYENCE, Osaka, Japan).

human CEC [1] = experiment: Intracellular ROS detection (DCF-DA) in corneal endothelial grafts exposed to TNF-α and IFN-γ; type: cell-based; conditions: Ac-YVAD-cmk 30 ng/ml, 48 hours, p<0.001
Description: as §1
Measurement of intracellular ROS levels was performed using a 2,7-dichlorofluorescein diacetate (DCF-DA) Cellular Reactive Oxygen Species Detection Assay Kit (Abcam, Cambridge, UK) according to the manufacturer's instructions as described in^36. Endothelial grafts were incubated with 10 μM DCF-DA at 37° C. for 45 min. Then, ROS level was determined by measuring the fluorescence intensity using a microplate reader (SpectraMax iD3, Molecular Device, San Jose, CA, USA) with excitation and emission wavelengths set at 485 and 535 nm, respectively. Tert-butyl hydrogen peroxide (TBHP) was used as the positive control. […]

human CEC [2] = experiment: Lactate dehydrogenase (LDH) release assay in corneal endothelial grafts exposed to TNF-α and IFN-γ; type: cell-based; conditions: supernatant of grafts exposed to TNF-α and IFN-γ, Ac-YVAD-cmk 30 ng/ml, 48 hours; p<0.05
Description: as §1
Cytotoxicity of CEC after TNF-α, IFN-γ treatment was assessed by LDH release assay. LDH release assay was measure using a CytoTox 96® Non-Radioactive Cytotoxicity Assay kit (Promega, Madison, WI, USA) performed according to the manufacturer's instructions as described in^35. The absorbance was measured using a microplate reader (SpectraMax iD3, Molecular Device, San Jose, CA, USA) with excitation and emission wavelengths set at 490 nm.

caspase-1 [3] = experiment: Caspase-1 immunofluorescence in corneal endothelial grafts exposed to TNF-α and IFN-γ; type: cell-based, human; conditions: Ac-YVAD-cmk 30 ng/ml, TNF-α 100 ng/ml + IFN-γ 100 ng/ml, 48 hours
Description: as §1, §2

caspase-1 [4] = experiment: siRNA inflammasome inhibitor in vitro assay: caspase-1 SimpleStep ELISA in HCEC-B4G12 cells; type: cell-based, human; conditions: HCEC-B4G12, YVAD 30 ng/ml, TNFα and INFγ, 72 hours; vs positive control cells treated only with TNFα and INFγ
Description: HCEC-B4G12 (Human Corneal Endothelial Cell Line) cells were obtained from Leibniz Institute DSMZ and maintained in Endothelial SFM supplemented with FGF 10 ng/ml in a humidified incubator under an atmosphere of 5% CO2/95% air at 37° C. For transfection, cells were seeded in 12 well culture plates until cultures reached 95-100% confluence. The cells were then transfected with 1 μM ASC siRNAs using siPORT NeoFX Transfection Agent (Invitrogen) following the manufacturer protocol.
Transfection efficiency was estimated by assessing the amount of Block-it Alexa Fluor green fluorescent oligonucleotide (Invitrogen) present inside cells in control cultures 24 and 72 hours after transfection. […] Following the 72 hours treated endothelial cells were placed on 150 μL of lysis buffer with protease inhibitor cocktail (Sigma), and caspase-1 levels were measured by SimpleStep ELISA™ kit (Abcam; Cambridge, UK) according to the manufacturer's instructions. Caspase-1 protein levels were determined by measuring the fluorescence intensity using a microplate reader (SpectraMax iD3, Molecular Device, San Jose, CA, USA) with excitation and emission wavelengths set at 485 and 535 nm, respectively. […]
Caspase-1 levels were analyzed by SimpleStep ELISA after 72 hours of treatment with either YVAD (30 ng/ml) or ASC siRNA (1 μM) transfection, both sets of cells underwent inflammation induction with TNFα and INFγ. […]

IL-1β = IL-1β ELISA in human corneal endothelial grafts exposed to TNF-α and IFN-γ; type: cell-based; conditions: Ac-YVAD-cmk 30 ng/ml, TNF-α 100 ng/ml + IFN-γ 100 ng/ml, 48 hours; vs exposed grafts
Description: as §1
(§3) To study the expression of inflammasome signaling proteins in endothelial grafts, cells were treated with TNF-α and IFN-γ for 48 hours. Treated endothelial grafts were placed on […] of lysis buffer with protease inhibitor cocktail (Sigma) and Caspase-1 and […] levels were measure by SimpleStep ELISA™ kit (Abcam; Cambridge, UK) according to the manufacturer's instructions. Caspase-1 and IL-1β protein levels were determined by measuring the fluorescence intensity using a microplate reader (SpectraMax iD3, Molecular Device, San Jose, CA, USA) with excitation and emission wavelengths set at 485 and 535 nm, respectively. […]

caspase-1 [5] = experiment: Caspase-1 ELISA in human corneal endothelial grafts exposed to TNF-α and IFN-γ; type: cell-based; conditions: Ac-YVAD-cmk 30 ng/ml, TNF-α 100 ng/ml + IFN-γ 100 ng/ml, 48 hours; vs exposed and control non-exposed grafts, p<0.0001
Description: as §1, §3

- caspase-1 expression (immunofluorescence) (caspase-1 [3]): lower expression of caspase-1
- caspase-1 levels (ELISA) (caspase-1 [5]): significantly lower levels of caspase-1
Substance: Ac-YVAD-cmk
- intracellular (cytoplasmic) immunoreactivity of GSDM-D (GSDM-D): inhibited
- ROS levels (human CEC [1]): significantly downregulated
- LDH levels (LDH release, cell death) (human CEC [2]): significantly downregulated
- decrease of caspase-1 levels (caspase-1 [4]): about 41%
- IL-1β levels (ELISA) (IL-1β): did not show significantly lower levels of IL-1β

Source: US20230416751A1, “MATERIALS AND METHODS FOR TREATING CORNEAL DYSFUNCTION” (UNIVERSITY OF MIAMI, priority 2020, published 2023)
